What was measured:
Assay type in all cases: cell-based
[1] = test system: Loblolly pine megagametophytes; assay: 30 minute abscisic acid soaking pre-treatment, culture on solid media #1042 with or without 0.1 μM brassinolide, eight weeks; conditions: 0 ppm ABA/ +Br (0.10 μM)
Experimental: In this experiment, the effects of ovule pre-treatment by soaking with abscisic acid solutions of varying concentration was investigated. The abscisic acid treatment was tested on two media, one containing brassinolide and one lacking in brassinolide. The explants were megagametophytes from open pollinated summer cones of four individual trees, representing a multiplicity of genotypes. The seeds contained Stage 2-4 zygotic embryos. Megagametophytes were excised from sterilized seeds, as described in Example 4.
Prior to culturing, the megagametophytes were soaked for 30 minutes in liquid growth media (media #1042, Table 47, minus the gelling agent) containing 0, 5, 10 and 20 ppm abscisic acid. After soaking, the megagametophytes were placed on either one of two solid growth media. While still liquid, 2 ml media was poured into wells on a culture well plate and allowed to solidify. Half the soaked megagametophytes were placed on solid media #1042 (Table 47) and half were placed on solid media #1042 with 0.1 μM brassinolide added.
On solid media where brassinolide was present, there was a dramatic difference in extrusion and initiation between megagametophytes soaked in zero and 5 ppm ABA solutions (Treatments #5 and #6) compared to those soaked in 10 and 20 ppm ABA solutions (Treatments #7 and #8). […] In contrast, megagametophytes treated with higher amounts of ABA in Treatments 7 and 8 had the highest initiation frequencies of any treatment. […] Alternatively, there may have been an interaction between brassinolide and ABA such that low ABA plus brassinolide inhibits extrusion, with this inhibition overcome when ABA concentration is higher.

[2] = test system: Loblolly pine megagametophytes; assay: Elevated pressure in combination with brassinolide, ABA pre-soak or liquid media #1038, 8 weeks; conditions: for % Megagametophytes Extruding / % Megagametophytes Initiating: Br 0.1 μM in media #1042, ABA soak 5 ppm 30 minute
Experimental: The previous examples indicate that elevated pressure can enhance extrusion and initiation. This experiment was designed to test the effect of elevated pressure in combination with other treatments to determine the optimal conditions for promoting extrusion and initiation.
Megagametophytes in some treatments received a 30 minute pre-culturing soak in liquid media (#1042 minus the gelling agent) containing 5 ppm ABA. Megagametophytes in Treatments 9 and 10 were fully immersed in liquid media #1038. The experiment consisted of three replications per treatment, per genotype.
Five different treatments were used, each cultured under 1.0 or 1.5 atmospheres for a total of ten treatments (See Table 33).
After 8 weeks culturing, the treatments were scored. Extrusion and initiation were increased by elevated pressure in all treatments.

[3] = test system: Norway spruce zygotic embryos; assay: Norway spruce initiation on solid media #56 with ABA, brassinolide or elevated pressure, ten weeks; conditions: 0.1 pM brassinolide added to medium #56
Experimental: Explants were zygotic embryos flipped out of the megagametophyte, prepared as in Example 1. The experiment consisted of five replications, with a replication consisting of ten explants in a single petri dish. Explants were cultured on solid media #56 (Table 3). Treatment #1 consisted of explants on media #56. In Treatment #2, the medium additionally contained 1 ppm ABA. In Treatment #3, the media contained […] brassinolide. In Treatment #4, the explants were cultured under 1.5 atmospheres of pressure. After ten weeks, the explants were examined and the frequency of embryogenic culture initiation was scored (Table 43).

[4] = test system: Douglas fir stage 3-5 zygotic embryos attached to megagametophytes; assay: Douglas fir initiation on solid media #121 with brassinolide, ABA, ABA pre-soak or elevated pressure; conditions: +0.1 μM Br in media #121
From the text: The explants used in this experiment were isolated from Douglas fir cones collected in mid-summer from four open-pollinated trees, representing a multiplicity of genotypes. Explants were stage 3-5 (early-midstage) zygotic embryos attached to megagametophytes, prepared as described in Example 2. The embryo and attached megagametophyte were then placed next to each other on the treatment media. As in Example 2, each replication consisted of ten explants in a single petri dish. Each treatment contained four replications per treatment, per genotype.
The treatment media were based on solid media #121, the composition of which is described in Table 5. Media #121 contains no ABA or brassinolide. Treatment #1, the control, consisted of explants cultured on media #121 alone. In Treatment #2, explants were cultured on media #121 containing 0.1 μM brassinolide. In Treatment #3, explants were cultured on media #121 containing 1 ppm ABA. In treatment #4, explants were soaked in liquid media containing 5 ppm ABA for 30 minutes prior to being placed on #121 media. In Treatment #5, explants were cultured on media #121 under 1.5 atmospheres of pressure. The petri dishes were wrapped in PARAFILM and incubated at 23-24° C. in the dark.

[5] = genotype 7-100, + Pressure 1.5 atm
[6] = genotype 11-1095, + Pressure 1.5 atm
[7] = genotype 21-6, + Pressure 1.5 atm

Structure (SMILES): CC(C)[C@H](C)[C@@H](O)[C@H](O)[C@@H](C)[C@H]1CC[C@H]2[C@@H]3COC(=O)[C@H]4C[C@H](O)[C@H](O)C[C@]4(C)[C@H]3CC[C@]12C [brassinolide]
- % Megagametophytes Extruding ([1]; genotype 7-1051): 13.3 (6.7) %
- Embryogenic Culture Initiation - % Megagametophytes Extruding ([1]; genotype 7-1051): 0.0 (0.0) %
- % Megagametophytes Extruding ([1]; genotype M7-56): 3.3 (3.3) %
- Embryogenic Culture Initiation - % Megagametophytes Extruding ([1]; genotype M7-56): 0.0 (0.0) %
- % Megagametophytes Extruding ([1]; genotype TC5-1501): 0.0 (0.0) %
- Embryogenic Culture Initiation - % Megagametophytes Extruding ([1]; genotype TC5-1501): 0.0 (0.0) %
- % Megagametophytes Extruding ([1]; genotype TC11-109): 0.0 (0.0) %
- Embryogenic Culture Initiation - % Megagametophytes Extruding ([1]; genotype TC11-109): 0.0 (0.0) %
- % Megagametophytes Extruding ([1]; total): 4.2%
- Embryogenic Culture Initiation - % Megagametophytes Extruding ([1]; total): 0%
- % Megagametophytes Extruding ([2]; Total, 1.0 atm): 32.2%
- % Megagametophytes Initiating ([2]; Total, 1.0 atm): 24.2%
- % Megagametophytes Extruding ([2]; Total, + Pressure 1.5 atm): 55.9%
- % Megagametophytes Initiating ([2]; Total, + Pressure 1.5 atm): 38.7%
- increase of initiation frequency by pressure ([2]; Treatment #4 vs. #3): over 60%
- % Megagametophytes Extruding ([2]; genotype 7-100, 1.0 atm): 3.3 (3.3) %
- % Megagametophytes Initiating ([2]; genotype 7-100, 1.0 atm): 0.0 (0.0) %
- % Megagametophytes Extruding [2, 5]: 43.3 (8.8) %
- % Megagametophytes Initiating [2, 5]: 20.0 (5.8) %
- % Megagametophytes Extruding ([2]; genotype 11-1095, 1.0 atm): 56.7 (6.7) %
- % Megagametophytes Initiating ([2]; genotype 11-1095, 1.0 atm): 39.2 (11.6) %
- % Megagametophytes Extruding [2, 6]: 50.0 (21.7) %
- % Megagametophytes Initiating [2, 6]: 39.2 (18.6) %
- % Megagametophytes Extruding ([2]; genotype 21-6, 1.0 atm): 36.7 (6.7) %
- % Megagametophytes Initiating ([2]; genotype 21-6, 1.0 atm): 33.3 (8.8) %
- % Megagametophytes Extruding [2, 7]: 74.4 (12.4) %
- % Megagametophytes Initiating [2, 7]: 56.9 (13.7) %
- % Initiating (std. error) [3]: 46.2 (6.1) %
- % of Megagametophytes Initiating - Mean ([4]; genotype T0232l): 27.8%
- % of Megagametophytes Initiating - Mean ([4]; genotype T0235l): 21.8%
- % of Megagametophytes Initiating - Mean ([4]; genotype T0293l): 34.6%
- % of Megagametophytes Initiating - Mean ([4]; genotype T0525l): 30.0%
- % of Megagametophytes Initiating - Mean ([4]; total): 31.1%
